Literature values as cited in patent publication EP3958980B1, “TARGETED NOVEL TRIAZOLOTHIADIAZINE DERIVATIVES FOR THE TREATMENT OF LUNG CANCER” (Anadolu Universitesi, priority 2020, dated 2021).

Legend:
[1] = test system: leukemia (MOLT-4) cell line; conditions: cited from earlier work
[2] = test system: kidney cancer (OU-31) cell line; set-up: concentration or dose not given beside the values; conditions: cited from earlier work
[3] = test system: 60 cell lines formed of leukemia, NSCLC, melanoma, prostate, ovarian and breast cancers; conditions: against all cancer cells; cited from earlier work
[4] = test system: kidney fibroblast (BHK-21) and lung carcinoma (H-157) cell lines; conditions: highest cytotoxic activity; cell line not stated; cited from earlier work
lung cancer (H157) cells = conditions: cited from earlier work
[5] = test system: kidney fibroblast (BHK-21) cells; conditions: cited from earlier work

Which growth [1] does the source give for `O=C(CSc1nnc2n1N=C(c1ccc(Cl)cc1)CS2)c1ccc(F)cc1` [2-((6-(4-Chlorophenyl)-7H-[1,2,4]triazolo[3,4-b][1,3,4]thiadiazine-3-yl)thio-1-(4-fluorophenyl)ethanone] here?
The growth was 49.82%.

What about the growth [2] of the same compound?
Its growth is 48.14%.

Which GI50 [3] does the source give for `Fc1cc(-c2nnc3n2N=C(c2ccc(Cl)cc2)CS3)c(Cl)cc1Cl` [3-(2,4-Dichloro-5-fluorophenyl)-6-(4-chlorophenyl)-1,2,4-triazolo[3,4-b]-1,3,4-thiadiazine] here?
Its GI50 is 1.06 to 25.4 µM.

With `O=c1oc2ccccc2cc1-c1nnc2n1N=C(c1ccc(-c3ccccc3)cc1)CS2` [3-(6-(Biphenyl-4-yl)-7H-[1,2,4]triazolo[3,4-b][1,3,4]-thiadiazine-3-yl)-2H-chromene-2-one] as the compound, how does the IC50 [4] read?
The IC50 was 1.01 ± 0.12 µM.

Which IC50 (lung cancer (H157) cells) does the source give for `CC[C@]1(O)C[C@H]2CN(CCc3c([nH]c4ccccc34)[C@@](C(=O)OC)(c3cc4c(cc3OC)N(C=O)[C@H]3[C@@](O)(C(=O)OC)[C@H](OC(C)=O)[C@]5(CC)C=CCN6CC[C@]43[C@@H]65)C2)C1` [vincristine] here?
Its IC50 is 1.03 ± 0.04 µM.

And the inhibition [5]?
Its inhibition is 74.5%.
